Results reported in paper PMC11809180, “RA-PR058, a novel ramalin derivative, reduces BACE1 expression and phosphorylation of tau in Alzheimer’s disease mouse models” (Animal Cells and Systems, 2025).

Assays:
[1] = test system: 5xFAD hippocampal neurons; experiment: vGlut1-pHluorin (vG-pH) synaptic transmission assay in primary hippocampal neurons; format: cell-based, mouse
Method: Hippocampal CA1-CA3 regions were isolated from postnatal (0–3 d old) 5xFAD mice. For dissociation, the dissected tissues were incubated with trypsin (Sigma) and DNase (Sigma) for 10 minutes at 37 ℃, followed by gentle trituration with pipette. 4.0–5.0 × 10^4 cells were plated on poly-ornithine-coated coverslips. Cells were maintained in culture media consisting of Neurobasal™-A Medium (Gibco) supplemented with GlutaMAX™ Supplement (Gibco) and B-27™ Supplement (Gibco) in a humidified incubator set at 37 ℃ with 5% CO2. Neurons were transfected 7 days after plating and further incubated for 14–21 days in culture medium. All results are obtained from at least three independent primary cultures. […]
For optical imaging, primary cultured hippocampal neurons were transfected with vGlut1-pHluorin (vG-pH) using the Ca^2+ phosphate precipitation method, as previously described (Bae et al. ([2020])). […] Fluorescence excitation/emission and collection were achieved using a 40 × Fluar Zeiss objective lens (1.3 NA) and 500–550 nm emission and 498 nm dichroic filters (Chroma). […]
All images were analyzed using ImageJ with plugin Time Series Analyzer. Synaptic boutons were selected as oval regions of interest (diameter, 10 pixels), and the intensity of fluorescence at synapses was measured. Fluorescence traces were analyzed using Origin Pro.

JNK = JNK phosphorylation in cortex of 3xTg-AD mice (western blot); format: in vivo, mouse; details: 20 mg/kg oral daily 4 weeks, p-JNK normalized with JNK
Method: 3xTg-AD (B6;129-Tg(APPSwe,tauP301L)1Lfa Psen1^tm1Mpm/Mmjax) mice and their littermate wild-type (WT) mice were used in this study. Each experimental group consisted of 4–8 mice, with groups designated as WT, 3xTg-AD Vehicle, and 3xTg-AD RA-PR058. All mice were maintained in a 12-hour light/dark cycle with free access to food and water. 7-month-old age of mice were administered with 20 mg/kg of RA-PR058 orally once a day for 1 month followed by the elevated plus maze test. All animal experimental procedures were approved by the Institutional Animal Care and Use Committee of Sungkyunkwan University (SKKUIACUC2022-10-41-1).
After EPM was conducted, mice were sacrificed, and brain tissues were collected as previously described (Park et al. [2021]). Mice were anesthetized by injecting Zoletil (Virbac) and Rompun (Bayer) intraperitoneally. After mice were anesthetized, they were perfused with phosphate-buffered saline (PBS). Then, brains were extracted and cut into two hemispheres; one hemisphere was preserved in 4% paraformaldehyde and the other was dissected into the cortex and hippocampus. […]
Samples for western blot analysis were prepared as previously described (Gwon et al. [2012]). […] Protein concentrations were measured using Pierce™ BCA Protein Assay Kits (Thermo Fisher Scientific). […] Protein bands were quantified using ImageJ (NIH).

Cl.N[C@@H](CCC(=O)NNc1ccccc1F)C(F)F [RA-PR058, (S)-4-amino-5,5-difluoro-N'-(2-fluorophenyl)pentanehydrazide hydrochloride]
Recovery of synaptic transmission dysfunction ([1]; 5xFAD hippocampal neurons, 10 μM RA-PR058, 100 AP at 10 Hz, did not reach statistical significance): partially recovered | Mean amplitude of 100AP vG-pH response ([1]; RA-PR058 treated 5xFAD hippocampal neurons, 10 Hz for 10 s, normalized to maximal NH4Cl response, mean ± SEM, n = 6, untreated 5xFAD 0.11 ± 0.01, WT 0.20 ± 0.01): 0.15 ± 0.03 | JNK phosphorylation (JNK): significantly downregulated
